US20230270712A1, “NOBILETIN COMPOSITIONS AND METHODS FOR THE TREATMENT AND PREVENTION OF COVID-19 AND RELATED PATHOLOGIES” (CAS PROPERTIES, LLC, priority 2020, published 2023)
Read-outs that look alike come from different tables or passages of the source.

Experiments:
[1] = bioavailability and tissue penetration; details: in vivo
lung function = lung function in subjects having severe pneumonia; format: in vivo; details: including from COVID-19
chikungunya (CHIKV) = details: cited from earlier work
enterovirus 71 = details: cited from earlier work
hepatitis C virus = details: cited from earlier work
TNF-α = details: cited from earlier work
IL1-β = details: cited from earlier work
IL-6 = details: cited from earlier work
IL1-α = details: cited from earlier work
MCP-1 = details: cited from earlier work
[2] = test system: toll-like receptor (TLR) 2+TLR4; details: cited from earlier work
COX-2 = COX-2 (Homo sapiens, UniProt P35354); details: cited from earlier work
Chain of COX-2 (P35354 18-604): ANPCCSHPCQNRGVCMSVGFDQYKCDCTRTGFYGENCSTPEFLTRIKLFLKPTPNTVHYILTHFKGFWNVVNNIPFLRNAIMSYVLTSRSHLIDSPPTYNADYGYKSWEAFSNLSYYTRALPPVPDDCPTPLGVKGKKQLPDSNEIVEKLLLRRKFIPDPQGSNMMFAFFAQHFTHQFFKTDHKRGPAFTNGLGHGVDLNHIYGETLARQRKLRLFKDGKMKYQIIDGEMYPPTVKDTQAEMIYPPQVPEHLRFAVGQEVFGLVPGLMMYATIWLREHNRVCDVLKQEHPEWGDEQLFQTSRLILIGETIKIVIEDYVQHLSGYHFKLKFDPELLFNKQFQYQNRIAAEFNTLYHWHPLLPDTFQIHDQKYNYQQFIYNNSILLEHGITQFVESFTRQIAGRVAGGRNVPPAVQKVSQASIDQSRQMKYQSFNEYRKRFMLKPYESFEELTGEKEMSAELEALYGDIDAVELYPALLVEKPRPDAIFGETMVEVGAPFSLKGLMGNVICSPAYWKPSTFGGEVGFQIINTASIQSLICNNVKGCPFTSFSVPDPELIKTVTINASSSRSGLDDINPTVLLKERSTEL

[3] = test system: leukocyte infiltration into inflamed tissue; details: in vivo; cited from earlier work
MMP-1 = MMP-1 (Homo sapiens, UniProt P03956); details: cited from earlier work
Chain of MMP-1 (P03956 100-469, species assumed): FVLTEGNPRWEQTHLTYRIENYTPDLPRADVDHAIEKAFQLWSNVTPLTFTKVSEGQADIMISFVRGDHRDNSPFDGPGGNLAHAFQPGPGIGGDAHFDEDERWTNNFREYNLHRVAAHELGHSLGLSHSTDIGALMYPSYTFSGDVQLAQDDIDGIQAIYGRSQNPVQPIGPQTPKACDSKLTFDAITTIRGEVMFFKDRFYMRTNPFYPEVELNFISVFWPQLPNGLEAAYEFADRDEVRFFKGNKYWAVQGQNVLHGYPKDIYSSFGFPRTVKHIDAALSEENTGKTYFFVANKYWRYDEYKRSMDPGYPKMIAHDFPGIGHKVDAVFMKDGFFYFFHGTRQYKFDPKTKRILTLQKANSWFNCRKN

MMP-2 = MMP-2 (Homo sapiens, UniProt P08253); details: cited from earlier work
Chain of MMP-2 (P08253 110-660, species assumed): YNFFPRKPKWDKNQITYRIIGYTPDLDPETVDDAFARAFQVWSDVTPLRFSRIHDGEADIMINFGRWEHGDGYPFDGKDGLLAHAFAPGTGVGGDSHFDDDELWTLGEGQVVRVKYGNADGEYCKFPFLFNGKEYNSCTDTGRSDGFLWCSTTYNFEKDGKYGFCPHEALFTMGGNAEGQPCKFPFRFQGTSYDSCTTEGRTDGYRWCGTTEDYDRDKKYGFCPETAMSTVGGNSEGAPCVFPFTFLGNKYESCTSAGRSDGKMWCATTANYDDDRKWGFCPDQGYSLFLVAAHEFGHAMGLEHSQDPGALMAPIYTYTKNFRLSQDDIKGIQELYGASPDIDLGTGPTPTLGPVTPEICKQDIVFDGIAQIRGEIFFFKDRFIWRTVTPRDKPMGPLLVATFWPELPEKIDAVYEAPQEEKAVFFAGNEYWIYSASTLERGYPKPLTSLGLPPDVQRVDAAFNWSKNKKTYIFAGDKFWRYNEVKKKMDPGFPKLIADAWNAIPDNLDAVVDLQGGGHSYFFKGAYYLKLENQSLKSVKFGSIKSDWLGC

MMP-3 = MMP-3 (Homo sapiens, UniProt P08254); details: cited from earlier work
Chain of MMP-3 (P08254 100-477, species assumed): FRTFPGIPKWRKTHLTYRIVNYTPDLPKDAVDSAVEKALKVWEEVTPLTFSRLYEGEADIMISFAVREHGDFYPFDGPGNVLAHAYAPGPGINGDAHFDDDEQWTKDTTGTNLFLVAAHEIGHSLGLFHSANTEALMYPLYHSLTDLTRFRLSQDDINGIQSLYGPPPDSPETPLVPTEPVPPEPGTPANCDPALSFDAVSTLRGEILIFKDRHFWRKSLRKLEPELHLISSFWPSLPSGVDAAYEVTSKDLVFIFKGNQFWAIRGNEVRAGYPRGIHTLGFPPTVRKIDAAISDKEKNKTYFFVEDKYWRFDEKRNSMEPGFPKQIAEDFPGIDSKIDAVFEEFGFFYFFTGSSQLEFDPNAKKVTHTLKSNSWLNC

MMP-9 = MMP-9 (Homo sapiens, UniProt P14780); details: cited from earlier work
Chain of MMP-9 (P14780 94-707, species assumed): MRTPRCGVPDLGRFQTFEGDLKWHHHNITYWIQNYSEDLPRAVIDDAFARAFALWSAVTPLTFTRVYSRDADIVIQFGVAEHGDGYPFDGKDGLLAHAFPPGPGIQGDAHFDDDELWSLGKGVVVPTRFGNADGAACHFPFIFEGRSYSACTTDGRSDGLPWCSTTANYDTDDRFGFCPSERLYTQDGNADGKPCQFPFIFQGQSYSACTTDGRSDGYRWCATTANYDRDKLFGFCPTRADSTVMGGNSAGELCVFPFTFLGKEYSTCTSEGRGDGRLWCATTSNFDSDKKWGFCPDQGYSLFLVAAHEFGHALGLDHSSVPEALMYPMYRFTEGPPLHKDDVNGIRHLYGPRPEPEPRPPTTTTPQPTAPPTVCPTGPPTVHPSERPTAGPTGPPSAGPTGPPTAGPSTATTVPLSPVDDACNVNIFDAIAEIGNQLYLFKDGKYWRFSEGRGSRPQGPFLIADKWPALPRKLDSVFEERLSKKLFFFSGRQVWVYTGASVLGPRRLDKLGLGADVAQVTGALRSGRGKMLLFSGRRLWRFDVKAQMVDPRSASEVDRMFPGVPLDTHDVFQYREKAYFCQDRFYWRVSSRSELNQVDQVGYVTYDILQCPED

TIMP-1 = details: cited from earlier work
platelet aggregation = details: cited from earlier work
induced lung damage = details: acute lung injury research model, dose-dependent; cited from earlier work
[4] = test system: natural killer (NK) cells; details: cited from earlier work
[5] = test system: 5′ adenosine monophosphate-activated protein kinase (AMPK); details: cited from earlier work
[6] = in vivo; cited from earlier work
[7] = higher concentration of nobiletin

## COc1ccc(-c2cc(=O)c3c(OC)c(OC)c(OC)c(OC)c3o2)cc1OC [nobiletin, 5,6,7,8,3′,4′-hexamethoxyflavone]
[1]
  relative bioavailability: high relative bioavailability
  tissue penetration: high tissue penetration
Lung function
  lung function: excellent ability to restore lung function
Chikungunya (CHIKV); at viral entry as well as during translation/replication state
  inhibition of chikungunya (CHIKV) infection: inhibit chikungunya (CHIKV) infection
Chikungunya (CHIKV); [7]
  cell survival of virally infected cells: ~90%
  increase in survival of virally infected cells: 6 fold
Chikungunya (CHIKV); lower concentration of nobiletin, cell survival without it <15%
  increase in survival of virally infected cells: 4 fold
Enterovirus 71
  anti-viral activity against enterovirus 71: direct anti-viral activity
Hepatitis C virus
  activity against hepatitis C virus: significant activity
TNF-α
  inhibition of TNF-α: significantly inhibiting
IL1-β
  inhibition of IL1-β: significantly inhibiting
IL-6
  inhibition of IL-6: significantly inhibiting
IL1-α
  inhibition of IL1-α: significantly inhibiting
MCP-1
  inhibition of MCP-1: significantly inhibiting
[2]
  inhibition of TLR2+TLR4: significantly inhibiting
COX-2
  inhibition of COX-2 (and its metabolite PGE2): inhibiting
[3]
  leukocyte infiltration into inflamed tissue: significantly reduces
MMP-1
  inhibition of MMP-1: inhibiting
MMP-2
  inhibition of MMP-2: inhibiting
MMP-3
  inhibition of MMP-3: inhibiting
MMP-9
  inhibition of MMP-9: inhibiting
TIMP-1
  effect on TIMP-1: upregulating
Platelet aggregation
  platelet aggregation: suppression of platelet aggregation
Induced lung damage
  induced lung damage: nearly eliminated lung damage
[4]
  anti-viral activity of NK cells: potentiating
[5]
  AMPK levels and activity: increasing
[6]
  anti-obesity effects: weight loss, fat loss
